Data set [1] concerns the target T1, G protein-coupled receptor 119 (GPR-119) (Mesocricetus auratus, UniProt A0A1U8CD06).
T1 construct: hamster-derived β-cells containing G protein-coupled receptor 119 (GPR-119), HIT-T15 cells; host or cells: HIT-T15 (hamster pancreatic β-cells)
T1 sequence (A0A1U8CD06 1-334): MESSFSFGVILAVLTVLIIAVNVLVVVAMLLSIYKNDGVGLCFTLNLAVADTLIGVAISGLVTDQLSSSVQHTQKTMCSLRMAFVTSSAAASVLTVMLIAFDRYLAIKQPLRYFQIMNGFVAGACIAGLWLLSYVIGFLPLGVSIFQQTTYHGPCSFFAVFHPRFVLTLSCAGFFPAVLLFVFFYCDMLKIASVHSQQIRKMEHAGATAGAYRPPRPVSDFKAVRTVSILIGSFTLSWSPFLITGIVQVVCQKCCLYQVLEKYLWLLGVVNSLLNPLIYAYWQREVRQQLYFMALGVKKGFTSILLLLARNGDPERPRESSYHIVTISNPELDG
Put plainly: Evaluation of cAMP activity in HIT-T15 cells (HTRF cAMP dynamic kit). Type of data set: cell-based, hamster. Conditions: cAMP activation. In short, it runs like this: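 HIT-T15 cells, 60,000/well, treated next day with compound at six concentrations ([…]) for 1 h at 37° C. Lysate cAMP quantified by HTRF competitive immunoassay (D2-cAMP, cryptate anti-cAMP); activity taken as change in FRET signal relative to DMSO.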
Background: In TR-FRET formats the signal depends on donor and acceptor labels being close together.

Data set [2] has as its system blood glucose level. Put plainly: Oral glucose tolerance test (OGTT) in high-fat diet model. The format is in vivo. Particulars: Mus musculus, 2 h; hypoglycemic level; 20 mg/kg oral, glucose 2 g/kg oral after 30 minutes; read-out: % AUC. Here is the method: To evaluate in vivo effective effects of the cyclohexene derivatives according to the present invention, experiments were carried out, as follows.
Specifically, male C57BL/6J (C57 black 6) […] (8 to 10 weeks old) in a high-fat diet model were acclimated for at least 7 days, and only healthy rat populations were selected and subjected to an oral glucose tolerance test (OGTT). The rats were fasted for 12 to 15 hours, and then randomly divided into groups with five rats per group. Thereafter, each of the compounds of Examples 1, 14, 48, 69, 80, 118, 139, 147, 148, 169, 190, 199, 200, 204, 227, and Comparative Examples 1 and 2 according to the present invention was administered to the rats at a dose of 20 mg/kg. In this case, a vehicle (0.5%, carboxymethyl cellulose (CMC)) was administered as an untreated group, and the dose of the compound administered together with the vehicle was orally administered at 10 ml/kg. After 30 minutes of administration, glucose (2 g/kg) was orally administered at a dose of 10 ml/kg. A blood glucose level was measured using an Accu-Chek Active Strip (Rosche Diagnostic Co.). In this case, the glucose level in blood collected via caudal venipuncture was measured at time points of −30, 0, 20, 40, 60, and 120 minutes after glucose administration.
In Table 3, the unit “% AUC (area under the curve)” represents a hypoglycemic level.

A short description of data set [3]: Weight change in diet-induced obesity (DIO) rat model, 4-week administration. Type of data set: in vivo, male Sprague Dawley (SD) rats. Particulars: DIO rats, oral, 10, 20, and 50 mg/kg, 4 weeks. As to the method:
To simultaneously evaluate both the weight-loss and hypoglycemic effects of the cyclohexene derivative according to the present invention, experiments were carried out, as follows.
Specifically, male Sprague Dawley (SD) rats (approximately 4 weeks old) in a diet-induced obesity model were fed with a high-fat diet (Lab. Diet Co.) for approximately 10 weeks to induce high-fat diet-induced obesity (DIO). The rats undergoing the high-fat diet were randomly selected, and divided into groups (n=8) for respective administrations. The compounds of Comparative Examples 3 and 4 and Examples 48 and 119 were administered to the divided DIO rats each group for 4 weeks.
The weights of the DIO rats were measured twice a week during a period of administration of 4 weeks to record a change in the weights. At the end of the 4-week period of administration, a hypoglycemic effect was evaluated using an oral glucose tolerance test (OGTT), as follows.
FIG. 1 is a graph determining the changes in weights of rats after compounds of Example 48 and Comparative Examples 3 and 4 according to the present invention are administered to a diet-induced obesity (DIO) rat model for 4 weeks (In FIG. 1, the term “untreated group (Vehicle)” represents an untreated group in a high-fat DIO rat model; and the term “Lean” represents an untreated group in a normal SD rat model rather than a disease model).

For data set [4], the system named is NCI-H716 cells. Put plainly: Promotion of glucagon-like peptide-1 (GLP-1) secretion (ELISA). Particulars: NCI-H716 cells, 1, 10 and 30 μM-treated groups. The format is cell-based, human. Here is the method:
To evaluate an effect of the cyclohexene derivative according to the present invention on promotion of glucagon-like peptide-1 (GLP-1) secretion, experiments were carried out, as follows.
NCI-H716 cells that were human enterocytes were plated on 12 wells at 1×10^6 cells per well. After 48 hours, the cells were starved in serum-free media for 2 hours, and treated with a varying concentration of siptagliptin that was a dipeptidyl peptidase-IV (DPP-IV) inhibitor, and the compounds of Comparative Example 1 (1, 10, 30 μM), Comparative Example 5 (10 μM), Example 48 (1, 10, 30 μM), and Example 291 (1, 10, 30 μM). After an hour, supernatants are recovered to determine an amount of the secreted GLP-1 peptide. The GLP-1 measurement was performed using an enzyme-linked immunosorbent assay (ELISA; Millipore, EGLP-35K), and the amount of the secreted GLP-1 peptide was indicated by the unit “pM”.
FIG. 3 is graph plotted for amounts of secreted GLP-1 when NCI-H716 cells that are human enterocytes are treated with the compounds of Comparative Examples 1 and 5 and Example 48 according to the present invention.
For orientation: In an ELISA, binding on a coated surface is turned into a signal by an enzyme label.

Data set [5] can be described thus: in vivo. Particulars: female, Ihara's cataract rats (ICR), rat, po. As to the method: To evaluate acute toxicity of the cyclohexene derivative according to the present invention, experiments were carried out, as follows.
Five 7-week-old female Ihara's cataract rats (ICRs) were supplied by Nara Biotech Co. Ltd., housed in a breeding farm, and acclimated to new environments while being fed with general solid feeds and water. When the rats were 8 weeks old, experiments were carried out. Environmental conditions were maintained constant: a set temperature of 23±3° C., a humidity of 55±15%, an illuminance of 150 to 300 Lux, a ventilation rate of 10 to 20 times/hour, and a lighting time of 12 hours (light-dark cycle: lighting at 8 a.m. and lights-out at 8 p.m.). As the feeds, solid feeds for laboratory animals (5L79 Lab Diet, Purina Mills, Richmond, Ind., USA), which had been sterilized by exposure to radiation, were provided by Orientbio Inc. so that rats were allowed to freely consume the solid feeds. As the water, running water was disinfected using a UV sterilizer and an ultra-filtration system, and then provided o that rats were allowed to freely drink the water in a water bottle. Analyses of contaminants in the water and feeds were carried out according to the ChemOn Inc.'s standard operating procedure (SOP). […]

[6] abbreviates: 1 h at 37° C., six concentrations, read-out: EC50.

Like-named read-outs stand apart in the source and are kept apart here.

Usually EC50 stands for the concentration needed to bring the measured effect to its halfway point. Broadly, the LD50 is the dose at which mortality reaches 50%. Low readings indicate greater toxicity, high ones lower toxicity. As for `CC(C)c1noc(N2CCC(COc3ccc(C4=CCC(C(=O)N5CC[C@@H](O)C5)CC4)cc3)CC2)n1` (stereo partly drawn) [Example 48, ((R)-3-hydroxypyrrolidin-1-yl)(4-(4-((1-(3-isopropyl-1,2,4-oxadiazol-5-yl)piperidin-4-yl)methoxy)phenyl)cyclohex-3-enyl)methanone], the values for the EC50 in data set [1] (setting [6]) and in data set [1] (read-out: EC50 value) were 35 nM and no more than 50 nM, respectively. In data set [2], the inhibition in vivo at 20 mg/kg was found to be 21.2%. Moreover, the weight-loss effect result in data set [3] is listed as “persistent weight loss was observed for 4 weeks”. In addition, the “GLP-1 secretion compared with Comparative Example 1” value in data set [4] is “induced GLP-1 secretion to a higher level than that of Comparative Example 1”. The LD50 in data set [5] is no less than 2000 mg/kg.

Regarding `CCc1cnc(N2CCC(COc3ccc(C4=CCC(C(=O)N5CCC[C@H]5CO)CC4)cc3)CC2)nc1` (stereo partly drawn) [Example 119, (4-(4-((1-(5-ethylpyrimidin-2-yl)piperidin-4-yl)methoxy)phenyl)cyclohex-3-enyl)((S)-2-(hydroxymethyl)pyrrolidin-1-yl)methanone], the 50% effective concentration (EC50) in data set [1] (setting [6]) is 6.8 nM; in data set [1] (read-out: EC50 value) it was no more than 50 nM. In data set [5], the LD50 is no less than 2000 mg/kg.
